Among the data in patent publication US9133219B2, “Bicyclic antibiotics” (Basilea Pharmaceutica AG, priority 2009, dated 2015) are MIC values, retold here.

Broadly, the MIC is the lowest concentration that inhibits growth of the organism.

Format in all cases: cell-based
For one experiment, the system named is Streptococcus pneumoniae. The experiment can be described thus: Anti-microbial activity assay, MIC by broth microdilution (CAMHB with 5% horse serum). The conditions noted are these: Streptococcus pneumoniae; strain ATCC49619; CAMHB with 5% horse serum; read-out: MIC Streptococcus pneumoniae ATCC49619. Here is the method:
(§1) Anti-Microbial Activity Assay.
(§2) The antibacterial activity of compounds is determined by the minimal inhibitory concentration (MIC) method. MICs for all bacteria except pneumococci and Haemophilus influenzae are obtained by broth microdilution with cation-adjusted Mueller-Hinton broth (CAMHB; BBL), according to CLSI guidelines (National Committee for Clinical Laboratory Standards. 2003. Methods for dilution antimicrobial susceptibility tests for bacteria that grow aerobically, 5th ed.; approved standard M7-A6. National Committee for Clinical Laboratory Standards, Wayne, Pa.), with the following modifications: (i) for pneumococci CAMHB is supplemented with 5% (^v/v) horse serum; (ii) for Haemophilus influenzae CAMHB is supplemented with 5% (^v/v) Fildes enrichment (BBL) (Pankuch, G. A., Hoellman, D. B., Lin, G., Bajaksouzian, S., Jacobs, M. R., and Appelbaum, P. C. 1998. Activity of HMR 3647 compared to those of five agents against Haemophilus influenzae and Moraxella catarrhalis by MIC determination and time-kill assay. Antimicrob. Agents Chemother. 42:3032-3034). Microtiter plates are incubated at 35° C. in ambient air for 20 to 24 h, then inspected using an illuminated microtiter plate reader fitted with a magnifying mirror (MIC 2000; Cooke Laboratory Products, Alexandria, Va.). Compounds of the present invention are tested against several bacteria strains comprising some Acinetobacter baumannii, Enterococcus faecalis, Enterococcus faecitan, Escherichia coli, Haemophilus influenzae, Klebsiella pneumoniae, Pseudomonas aeruginosa, Staphylococcus aureus, Staphylococcus epidermidis and Streptococcus pneumoniae.

In experiment [1] the test system is Staphylococcus aureus and/or Staphylococcus epidermidis and/or Streptococcus pneumoniae. Briefly: MIC summary statement, staphylococci and pneumococci. The following applies: generally, for Staphylococcus aureus and/or Staphylococcus epidermidis and/or Streptococcus pneumoniae. Here is the method: as §1, §2
In experiment [2] the test system is Staphylococcus aureus and/or Staphylococcus epidermidis. The experiment can be described thus: MIC summary statement, staphylococci. The following applies: generally, for Staphylococcus aureus and/or Staphylococcus epidermidis. Here is the method:
as §1, §2

The subject of experiment [3] is Staphylococcus epidermidis. The experiment can be described thus: Anti-microbial activity assay, MIC by broth microdilution. The following applies: Staphylococcus epidermidis; strain ATCC14990. Here is the method: as §1, §2
(In general: In broth dilution the organism is exposed to a series of concentrations in liquid medium.)

Another experiment has as its system Escherichia coli. Described as above. The conditions noted are these: Escherichia coli; strain UB1005; read-out: MIC Escherichia coli UB1005. Here is the method:
as §1, §2

Another experiment concerns Staphylococcus aureus. The description is as above. The conditions noted are these: Staphylococcus aureus; strain ATCC29213; read-out: MIC Staphylococcus aureus ATCC29213. Here is the method: as §1, §2

In brackets after ≈: the same amount, converted by molar mass. Bounds are passed on as bounds.

For `COc1ccc2ncc(OCC[C@H]3CC[C@H](NC(=O)c4ccc5c(c4)NC(=O)CS5)CC3)cc2n1` [Example 2, 3-oxo-3,4-dihydro-2H-benzo[1,4]thiazine-6-carboxylic acid {trans-4-[2-(6-methoxy-[1,5]naphthyridin-3-yloxy)-ethyl]-cyclohexyl}-amide], the MIC was ≤ 2 µg/mL with Streptococcus pneumoniae; ≤ 2 µg/mL in experiment [1]; ≤ 2 µg/mL in experiment [2]; ≤ 2 µg/mL in experiment [3]; > 32 µg/mL with Escherichia coli; ≤ 2 µg/mL in the experiment with Staphylococcus aureus.

As to `COc1ccc2ncc(OCC[C@H]3CC[C@H](NC(=O)c4ccc5c(c4)NC(=O)CS5)CC3)nc2c1` [Example 4, 3-oxo-3,4-dihydro-2H-benzo[1,4]thiazine-6-carboxylic acid {trans-4-[2-(7-methoxy-quinoxalin-2-yloxy)-ethyl]-cyclohexyl}-amide], the MIC in the experiment with Streptococcus pneumoniae was > 32 µg/mL; in experiment [2], ≤ 2 µg/mL; in experiment [3], ≤ 2 µg/mL; in the experiment with Escherichia coli, > 32 µg/mL; in the experiment on Staphylococcus aureus, ≤ 2 µg/mL.

For `COc1ccc2ncc(OCC[C@H]3CC[C@H](NC(=O)c4ccc5c(c4)NC(=O)CO5)CC3)cc2n1` [Example 6, 3-oxo-3,4-dihydro-2H-benzo[1,4]oxazine-6-carboxylic acid {trans-4-[2-(6-methoxy-[1,5]naphthyridin-3-yloxy)-ethyl]-cyclohexyl}-amide], the MIC is 4 µg/mL (≈ 8.39 µM) in the experiment with Streptococcus pneumoniae; ≤ 2 µg/mL in experiment [2]; ≤ 2 µg/mL in experiment [3]; > 32 µg/mL in the experiment with Escherichia coli; ≤ 2 µg/mL in the experiment with Staphylococcus aureus.

Turning to `O=C1CSc2ccc(C(=O)N[C@H]3CC[C@H](CCOc4cnc5ccc(F)cc5n4)CC3)cc2N1` [Example 7, 3-oxo-3,4-dihydro-2H-benzo[1,4]thiazine-6-carboxylic acid {trans-4-[2-(7-fluoro-quinoxalin-2-yloxy)-ethyl]-cyclohexyl}-amide], the minimal inhibitory concentration (MIC) in the experiment on Streptococcus pneumoniae was > 32 µg/mL; in experiment [2], ≤ 2 µg/mL; in experiment [3], > 32 µg/mL; in the experiment on Escherichia coli, > 32 µg/mL; in the experiment with Staphylococcus aureus, ≤ 2 µg/mL.

As to `COc1ccc2ncc(OCCCN3CC(NC(=O)c4ccc5c(c4)NC(=O)CS5)C3)nc2c1` [Example 8, 3-oxo-3,4-dihydro-2H-benzo[1,4]thiazine-6-carboxylic acid {1-[3-(7-methoxy-quinoxalin-2-yloxy)-propyl]-azetidin-3-yl}-amide], the minimal inhibitory concentration (MIC) in the experiment on Streptococcus pneumoniae was 16 µg/mL (≈ 33.4 µM); in experiment [2], ≤ 2 µg/mL; in experiment [3], 4 µg/mL (≈ 8.34 µM); in the experiment with Escherichia coli it was 16 µg/mL (≈ 33.4 µM); with Staphylococcus aureus it was ≤ 2 µg/mL.

Take `COc1ccc2ncc(OC(CN3CCC(NC(=O)c4ccc5c(c4)NC(=O)CS5)CC3)C(F)(F)F)nc2c1` (centres unmarked) [Example 14, 3-oxo-3,4-dihydro-2H-benzo[1,4]thiazine-6-carboxylic acid {1-[3,3,3-trifluoro-2-(7-methoxy-quinoxalin-2-yloxy)-propyl]-piperidin-4-yl}-amide]: the minimal inhibitory concentration (MIC) in the experiment on Streptococcus pneumoniae was 8 µg/mL (≈ 14.2 µM); in experiment [2], ≤ 2 µg/mL; in experiment [3], 8 µg/mL (≈ 14.2 µM); in the experiment with Escherichia coli, > 32 µg/mL; in the experiment on Staphylococcus aureus, ≤ 2 µg/mL.

As to `COc1ccc2ncc(OCCN3CCC(NC(=O)c4cc5c(cc4Cl)SCC(=O)N5)CC3)nc2c1` [Example 15, 7-chloro-3-oxo-3,4-dihydro-2H-benzo[1,4]thiazine-6-carboxylic acid {1-[2-(7-methoxy-quinoxalin-2-yloxy)-ethyl]-piperidin-4-yl}-amide], the minimum inhibitory concentration (MIC) in the experiment on Streptococcus pneumoniae was 8 µg/mL (≈ 15.2 µM); in experiment [2], ≤ 2 µg/mL; in experiment [3] it was ≤ 2 µg/mL; in the experiment on Escherichia coli it was 4 µg/mL (≈ 7.58 µM); in the experiment with Staphylococcus aureus it was ≤ 2 µg/mL.

As for `COc1ccc2ncc(OCCN3CCC(NC(=O)c4cc5c(cc4Cl)SCC(=O)N5)CC3)cc2n1` [Example 16, 7-chloro-3-oxo-3,4-dihydro-2H-benzo[1,4]thiazine-6-carboxylic acid {1-[2-(6-methoxy-[1,5]naphthyridin-3-yloxy)-ethyl]-piperidin-4-yl}-amide], the MIC with Streptococcus pneumoniae was 8 µg/mL (≈ 15.2 µM); in experiment [2] it was ≤ 2 µg/mL; in experiment [3] it was 4 µg/mL (≈ 7.58 µM); with Escherichia coli it was 8 µg/mL (≈ 15.2 µM); in the experiment on Staphylococcus aureus it was ≤ 2 µg/mL.

Consider `COc1ccc2ccc(OCCN3CCC(NC(=O)c4ccc5c(n4)NC(=O)CS5)CC3)nc2c1` [Example 17, 3-oxo-3,4-dihydro-2H-pyrido[3,2-b][1,4]thiazine-6-carboxylic acid {1-[2-(7-methoxy-quinolin-2-yloxy)-ethyl]-piperidin-4-yl}-amide], for which the minimum inhibitory concentration (MIC) was 16 µg/mL (≈ 32.4 µM) with Streptococcus pneumoniae; ≤ 2 µg/mL in experiment [2]; 4 µg/mL (≈ 8.1 µM) in experiment [3]; > 32 µg/mL with Escherichia coli; ≤ 2 µg/mL with Staphylococcus aureus.

As to `COc1cnc2ccc(OCCN3CCC(NC(=O)c4ccc5c(c4)NC(=O)CS5)CC3)nc2c1` [Example 18, 3-oxo-3,4-dihydro-2H-benzo[1,4]thiazine-6-carboxylic acid {1-[2-(7-methoxy-[1,5]naphthyridin-2-yloxy)-ethyl]-piperidin-4-yl}-amide], the MIC in the experiment on Streptococcus pneumoniae is 4 µg/mL (≈ 8.1 µM); in experiment [2], ≤ 2 µg/mL; in experiment [3] it was ≤ 2 µg/mL; with Escherichia coli it was 8 µg/mL (≈ 16.2 µM); in the experiment with Staphylococcus aureus it was ≤ 2 µg/mL.

With `COc1cnc2ccc(OCCN3CCC(NC(=O)c4cc5c(cc4Cl)SCC(=O)N5)CC3)nc2c1` [Example 19, 7-chloro-3-oxo-3,4-dihydro-2H-benzo[1,4]thiazine-6-carboxylic acid {1-[2-(7-methoxy-[1,5]naphthyridin-2-yloxy)-ethyl]-piperidin-4-yl}-amide], the MIC in the experiment on Streptococcus pneumoniae was 8 µg/mL (≈ 15.2 µM); in experiment [2], ≤ 2 µg/mL; in experiment [3], ≤ 2 µg/mL; in the experiment on Escherichia coli, 4 µg/mL (≈ 7.58 µM); in the experiment on Staphylococcus aureus it was ≤ 2 µg/mL.

In the case of `COc1ccc2ncc(OCCN3CCC(NC(=O)c4ccc5c(n4)NC(=O)CS5)CC3)nc2c1` [Example 20, 3-oxo-3,4-dihydro-2H-pyrido[3,2-b][1,4]thiazine-6-carboxylic acid {1-[2-(7-methoxy-quinoxalin-2-yloxy)-ethyl]-piperidin-4-yl}-amide], the MIC in the experiment with Streptococcus pneumoniae was > 32 µg/mL; in experiment [2] it was ≤ 2 µg/mL; in experiment [3], ≤ 2 µg/mL; in the experiment on Escherichia coli, > 32 µg/mL; in the experiment on Staphylococcus aureus it was ≤ 2 µg/mL.

On to `COc1ccc2ncc(C(=O)OC[C@H]3CC[C@H](NC(=O)c4ccc5c(c4)NC(=O)CS5)CC3)cc2c1` [Example 28, 6-methoxy-quinoline-3-carboxylic acid trans-4-[(3-oxo-3,4-dihydro-2H-benzo[1,4]thiazine-6-carbonyl)-amino]-cyclohexylmethyl ester], for which the MIC with Streptococcus pneumoniae is > 32 µg/mL; in experiment [2], ≤ 2 µg/mL; in experiment [3], ≤ 2 µg/mL; in the experiment with Escherichia coli, > 32 µg/mL; in the experiment on Staphylococcus aureus it was ≤ 2 µg/mL.

Take `COc1ccc2ncc(C(=O)OC[C@H]3CC[C@H](NCc4ccc5c(c4)OCCO5)CC3)cc2n1` [Example 29, 6-methoxy-[1,5]naphthyridine-3-carboxylic acid trans-4-[(2,3-dihydro-benzo[1,4]dioxin-6-ylmethyl)-amino]-cyclohexylmethyl ester]: the MIC with Streptococcus pneumoniae was 4 µg/mL (≈ 8.63 µM); in experiment [2], ≤ 2 µg/mL; in experiment [3], ≤ 2 µg/mL; with Escherichia coli it was > 32 µg/mL; in the experiment with Staphylococcus aureus, ≤ 2 µg/mL.

On to `COc1ccc2ncc(C(=O)OC[C@H]3CC[C@H](NC(=O)c4ccc5c(n4)NC(=O)CO5)CC3)cc2n1` [Example 30, 6-methoxy-[1,5]naphthyridine-3-carboxylic acid trans-4-[(3-oxo-3,4-dihydro-2H-pyrido[3,2-b][1,4]oxazine-6-carbonyl)-amino]-cyclohexylmethyl ester], for which the minimum inhibitory concentration (MIC) in the experiment on Streptococcus pneumoniae was > 32 µg/mL; in experiment [2] it was ≤ 2 µg/mL; in experiment [3], 4 µg/mL (≈ 8.14 µM); with Escherichia coli it was > 32 µg/mL; in the experiment on Staphylococcus aureus it was ≤ 2 µg/mL.

For `COc1ccc2ncc(C(=O)OC[C@H]3CC[C@H](NCCSc4cccs4)CC3)cc2n1` [Example 31, 6-methoxy-[1,5]naphthyridine-3-carboxylic acid trans-4-[2-(thiophen-2-ylsulfanyl)-ethylamino]-cyclohexylmethyl ester], the MIC in the experiment with Streptococcus pneumoniae is 8 µg/mL (≈ 17.5 µM); in experiment [2] it was ≤ 2 µg/mL; in experiment [3], 4 µg/mL (≈ 8.74 µM); in the experiment on Escherichia coli, > 32 µg/mL; in the experiment on Staphylococcus aureus, ≤ 2 µg/mL.

For `COc1ccc2ncc(SCCN3CCC(NC(=O)c4nc5c(cc4Cl)SCC(=O)N5)CC3)cc2c1` [Example 56, 7-chloro-3-oxo-3,4-dihydro-2H-pyrido[3,2-b][1,4]thiazine-6-carboxylic acid {1-[2-(6-methoxy-quinolin-3-ylsulfanyl)-ethyl]-piperidin-4-yl}-amide], the MIC in the experiment with Streptococcus pneumoniae was 16 µg/mL (≈ 29.4 µM); in experiment [2], ≤ 2 µg/mL; in experiment [3], 4 µg/mL (≈ 7.35 µM); with Escherichia coli, 4 µg/mL (≈ 7.35 µM); in the experiment with Staphylococcus aureus, ≤ 2 µg/mL.
